Data from article PMC8629924 (Nature chemistry, 2021).

Biological target: T1, MaNifB (Methanosarcina acetivorans, UniProt Q8TIF7)
T1 sequence (Q8TIF7 1-323): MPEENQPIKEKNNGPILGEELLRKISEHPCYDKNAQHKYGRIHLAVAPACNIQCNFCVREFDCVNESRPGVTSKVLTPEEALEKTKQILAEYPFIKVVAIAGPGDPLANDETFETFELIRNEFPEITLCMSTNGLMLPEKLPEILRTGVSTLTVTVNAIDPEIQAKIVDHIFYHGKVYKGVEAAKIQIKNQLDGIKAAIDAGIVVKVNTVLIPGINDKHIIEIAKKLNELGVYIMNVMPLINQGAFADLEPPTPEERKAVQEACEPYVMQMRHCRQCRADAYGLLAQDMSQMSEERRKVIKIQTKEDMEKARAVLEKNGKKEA
Details: K-cluster-loaded MaNifB; dithionite-reduced or IDS-oxidized

## C[S+](CC[C@H](N)C(=O)O)C[C@H]1O[C@@H](n2cnc3c(N)ncnc32)[C@H](O)[C@@H]1O (stereo partly shown) [SAM]
  CW EPR and 3-pulse ESEEM of K- to L*-cluster conversion: SAM-treated MaNifB (designated MaNifB-L*) displayed a distinct change in the line-shape
